Results: patent US4834964A, “Use of charged nitroxides as NMR image enhancing agents for CSF” (M.R.I., Inc., priority 1986, dated 1989)

Legend:
[1] = Stability/pharmacokinetics of nitroxide in the CSF of dogs (nitroxide concentration); format: in vivo; settings: 20 umol/animal, dog, average of 4 studies
Experimental: (§1) Dogs (data is the average of 4 independent studies) under general anesthetic were injected with 2 ml of a 10 mM stock solution of 4-(N,N,N-dimethylethylamino)-2,2,6,6-tetramethylpiperidin-oxyl iodide in saline (0.9%) into the spinal cavity (3 cm below the head). At defined times, samples of CSF were removed from a catheter inserted at the point of injection. The samples were analyzed for nitroxide concentration and relaxation times. (A separate experiment determined that charged nitroxides are not bioreduced by CSF fluid. Therefore, the diminution in nitroxide concentration is attributed to active transport from the spinal cavity.) The data obtained are set forth in the table below.

[2] = NMR image enhancement with nitroxide (cranium and spinal column); format: in vivo; settings: dog, 1.5 Tesla whole-body imager; 7, 21, 40, 60 and 90 min post injection, versus control images
From the text: An anesthetized dog (ca. 15 kg) as described in Example 1, in a prone position with front and hind legs extended and the head supported by a pillow in the upright position, was inserted into a small animal coil of a whole-body NMR imager (General Electric 1.5 Teslar instrument). Images of two cross-sections of the cranium and four cross-sections of the spinal column at various points below the point of injection were obtained as controls. The dog was removed from the instrument, injected with the NMR image-enhancing agent as described in Example 1 and the above-described images again obtained at 7, 21, 40, 60 and 90 minutes post injection. […] Because the loss in image enhancement is due to CSF turnover rather than decomposition of the nitroxide or passive diffusion thereof across the spinal cord, this procedure can be employed to study turnover of the CSF.

[3] = T1 relaxation time of CSF after injection of nitroxide into spinal cavity of dogs; format: in vivo; parameters: T1 RELAXATION TIME: unit not given here; settings: dog; for T1 RELAXATION TIME: average of 4 studies, time 0: 3.11
Experimental: as §1

[4] = U.S. Pat. No. 3,702,831; cited from earlier work
[5] = 5 min after 2 ml of 10 mM into spinal cavity
[6] = 10 min after 2 ml of 10 mM into spinal cavity
[7] = 20 min after 2 ml of 10 mM into spinal cavity
[8] = 30 min after 2 ml of 10 mM into spinal cavity
[9] = 45 min after 2 ml of 10 mM into spinal cavity
[10] = 60 min after 2 ml of 10 mM into spinal cavity
[11] = 75 min after 2 ml of 10 mM into spinal cavity
[12] = 90 min after 2 ml of 10 mM into spinal cavity
[13] = 150 min after 2 ml of 10 mM into spinal cavity

## CC[N+](C)(C)C1CC(C)(C)N([O])C(C)(C)C1 [4-(N,N,N-dimethylethylamino)-2,2,6,6-tetramethylpiperidinoxyl iodide]
[1]; [5]
  concentration at 5 min: 3800 µM
[1]; [6]
  concentration at 10 min: 3300 µM
[1]; [7]
  concentration at 20 min: 2200 µM
[1]; [8]
  concentration at 0.5 h: 2000 µM
[1]; [9]
  concentration at 0.75 h: 1000 µM
[1]; [10]
  concentration at 1 h: 720 µM
[1]; [11]
  concentration at 1.25 h: 450 µM
[1]; [12]
  concentration at 1.5 h: 220 µM
[1]; 105 min after 2 ml of 10 mM into spinal cavity
  concentration at 1.75 h: 70 µM
[1]; [13]
  concentration at 2.5 h: 30 µM
[2]
  NMR image of CSF in spinal column: the CSF fluid in the spinal column was clearly imaged and produced a clear anatomical profile of the spinal column in each image, including the cranial sections and all of the 90 minute images
[3]; [5]
  T1 RELAXATION TIME: 0.904
[3]; [6]
  T1 RELAXATION TIME: 1.147
[3]; [7]
  T1 RELAXATION TIME: 1.751
[3]; [8]
  T1 RELAXATION TIME: 1.942
[3]; [9]
  T1 RELAXATION TIME: 2.439
[3]; [10]
  T1 RELAXATION TIME: 2.533
[3]; [11]
  T1 RELAXATION TIME: 2.546
[3]; [12]
  T1 RELAXATION TIME: 2.782
[3]; [13]
  T1 RELAXATION TIME: 2.958
[3]; 150 min after injection (footnote)
  T1 relaxation time, sufficiency for enhanced NMR image: insufficient to obtain an enhanced NMR image

## CC(C)(C)N([O])C(C)(C)C [di-tert-butylnitroxide]
[4]
  in vivo elimination: rapidly eliminated in vivo
